Data on 31 compounds can be found in PubChem BioAssay (NCI).

What all share (assay): NCI-60 cell line screen, 48 h
Test [1] relates to HCC-2998 colon.
The subject of test [2] is UO-31 renal.
In test [3] the test system is OVCAR-3 ovarian.
For test [4], the system named is ACHN renal.
The test system of test [5] is SF-268 CNS.
Test [6] has as its system OVCAR-5 ovarian.
The subject of test [7] is SN12C renal.
The test system of test [8] is HS 578T breast.
The subject of test [9] is OVCAR-8 ovarian.
The subject of test [10] is NCI/ADR-RES ovarian.

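Cells were grown in 96-well plates and exposed to each compound for 48 hours at five concentrations; endpoints were interpolated linearly between bracketing concentrations, or set to the highest concentration if not reached. At the GI50, growth is halved. Definition used: TGI = concentration required for complete inhibition of growth.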 Some results are limits rather than exact numbers.

With `COC(=O)C1C=CCON2CCc3c(n(C)c4ccccc34)C12` (stereo not drawn), the TGI in test [1], in test [2], in test [3], in test [4], in [5] and in [6] was over 100 µM in each case. The TGI in [7] is over 100 µM.

For the compound `CNC(=S)N/N=C(\C(=N/NC(=S)NC)c1ccccn1)c1ccccn1`, the TGI in test [1] was over 100 µM; in test [2], over 69.6 µM; in test [8], 99.1 µM; in [4], over 44.6 µM; in test [9] it was over 100 µM; in test [5], over 63.6 µM. Besides, the TGI in test [6] and in [7] was over 100 µM throughout.

Consider `CCOC(=O)c1c(Br)c(-c2ccc(OC)cc2)c(Br)n1C`, for which the TGI in test [2] was 89.2 µM; in test [8], 47.6 µM; in test [3] it was 67.7 µM; in [4], over 100 µM; in test [9] it was over 100 µM; in test [5], over 100 µM. The figures for the TGI in [6], in [7] and in test [10] were over 100 µM, 49.2 µM and 55.3 µM, respectively. In test [10], the GI50 was 23.7 µM.

Take `CN(CCO)CCCC1COc2ccccc2O1` (stereo not drawn): the TGI in test [1] was over 100 µM; in [2] it was over 100 µM; in test [3], over 100 µM; in test [4], over 100 µM; in test [9], over 100 µM; in test [5], 45.4 µM. Also, the TGI in test [6], in test [7] and in test [10] was over 100 µM throughout.

For `COC(=O)/C(=N/Nc1cccc(Cl)c1)C(C(=O)C(=O)Nc1cccc(Cl)c1C)c1nc2ccccc2nc1C` (stereo not drawn), the TGI in test [1] was over 100 µM; in test [2] it was 75.1 µM; in test [3] it was over 100 µM; in test [4] it was over 100 µM; in test [9], over 100 µM; in test [5], over 100 µM. In addition, the TGI is 59.8 µM in [6] and over 100 µM in test [7].

For `NNc1nncc2[nH]cnc12`, the TGI in test [2], in [8], in [3], in test [4], in test [9] and in test [5] was over 100 µM each time. For the same compound, the TGI in test [6], in test [7] and in test [10] was over 100 µM each time.

As to `O=[N+]([O-])c1ccccc1S(=O)(=O)c1ccccc1`, the TGI in [1] is over 100 µM; in test [2] it was 90.6 µM; in [3], over 100 µM; in test [4], over 100 µM; in [9] it was over 100 µM; in [5], over 100 µM. Also, the TGI in [6] and in test [7] was over 100 µM each time.

As to `CN(C)c1ccc(C=C2C(=O)N(c3ccccc3)N(c3ccccc3)C2=O)cc1`, the TGI in test [2], in [8], in [3], in test [4], in test [9] and in test [5] was over 100 µM throughout. The TGI in [6] and in test [7] was over 100 µM throughout.

Take `CCCCCCCC(CC(=O)NC(CO)C(=O)NC(CO)CC(C)C)OC(=O)CC(CCCCCCC)OC(=O)CC(CCCCCCC)OC1OC(C)C(O)C(OC2OC(C)C(O)C(O)C2OC(C)=O)C1O` (stereo not drawn): the TGI in test [1] was 25.8 µM; in [2] it was 30.7 µM; in test [8], 19.1 µM; in test [3], 25.6 µM; in [4], 28.9 µM; in [9], 22.4 µM. For the same compound, the values for the TGI in test [5], in test [6] and in test [7] were 21.2 µM, 21.9 µM and 16.8 µM, respectively.

For the compound `COc1cc(C2=NNC(=O)c3ccccc3N2c2nc(-c3cccs3)nc3ccc(Br)cc23)cc(OC)c1OC`, the TGI in test [2] is over 100 µM; in test [8], 44.1 µM; in test [3], 27.8 µM; in [4] it was 63.3 µM; in test [9], over 100 µM; in test [5], 58.4 µM. Also, the TGI in test [6] is over 100 µM; in [7] it was over 100 µM; in test [10], 30 µM.

With `O=S(OC12CC3CC(CC(C3)C1)C2)c1cc(Cl)cc(Cl)c1OCc1ccccc1` (stereo not drawn), the TGI in test [1], in test [2], in test [3], in test [4], in test [5] and in [6] was over 100 µM throughout. Also, the TGI in [7] was over 100 µM.

Turning to `COc1cc(C2c3cc4c(cc3OC(Nc3ccccc3)C2C)OCO4)cc(OC)c1O` (stereo not drawn), the TGI in [1] turned out to be 14.6 µM; in [2], 25.8 µM; in [3], 24.6 µM; in test [9] it was 23.8 µM; in test [5] it was 39.4 µM; in test [6], 26.2 µM. Moreover, the TGI in [7] was found to be 21.2 µM; in test [10], 8.02 µM.

For `CCOC(=O)c1cc(I)c(-c2cc(C)no2)n1C`, the TGI in test [2], in test [3], in [4], in test [9], in [5] and in [6] was over 100 µM each time. For the same compound, the TGI in test [7] is 69.4 µM; in [10] it was over 100 µM.

With `Cc1nc2c(o1)C(=Nc1ccccc1)c1ccccc1C2=O`, the TGI in test [1] is 32.9 µM; in test [2], 20.6 µM; in test [3], 6.21 µM; in [4], 19.6 µM; in [9] it was 13.4 µM; in test [5], 24 µM. In addition, the results for the TGI in [6] and in test [7] were 32.4 µM and 22.8 µM, respectively.

Consider `CCN(CC)c1ccc(N=Nc2ccc([N+](=O)[O-])cc2OC(=O)/C=C/c2ccccc2)c(OC(=O)/C=C/c2ccccc2)c1`, for which the TGI in test [1], in [2], in test [3], in test [4], in test [9] and in [5] was over 100 µM in each case. The compound also had a TGI in test [7] of over 100 µM.

For the compound `O=C1c2ccccc2C(=O)c2sc(Nc3ccccc3C(F)(F)F)nc21`, the TGI was 35.2 µM in test [1]; 25.2 µM in test [2]; 48.2 µM in test [8]; 27.5 µM in test [3]; 33 µM in [4]; 30.1 µM in [5]. Further, the TGI in test [6] is 44.6 µM; in test [7] it was over 100 µM.

In the case of `O=c1cc(-c2c[nH]c3ccccc23)[nH]c2cc3c(cc12)OCO3`, the TGI in [1], in test [2], in test [3], in test [4], in test [5] and in test [7] was over 100 µM in each case.

Take `CCC/C=C1\CCC(CN(C)C)C1=O` (stereo not drawn): the TGI in test [1] was determined as 29.5 µM; in [2] it was 26.6 µM; in test [3] it was 12.3 µM; in test [4], 11.2 µM; in [9] it was 33.7 µM; in test [5] it was 19.8 µM. Further, the TGI was found to be 35.6 µM in test [6] and 32.7 µM in [7].

Consider `Cc1ccc2c(=O)c(C(=O)Nn3c(C)csc3=S)c[nH]c2n1`, for which the TGI in test [2], in test [8], in test [3], in test [4], in [9] and in test [5] was over 100 µM each time. For the same compound, the TGI in test [6], in test [7] and in [10] was over 100 µM each time.

Turning to `COP(=O)(OC)C(NC(=O)C(F)(F)F)(c1ccccc1)C(F)(F)F` (stereo not drawn), the TGI in test [1], in test [2], in test [3], in [4], in test [9] and in test [5] was over 100 µM each time. Also, the TGI in [6] and in [7] was over 100 µM in each case.

For the compound `O=C(NC1CCCCC1)c1cc2ccccc2cc1O`, the TGI was 58.8 µM in test [1]; 99 µM in test [2]; 97.8 µM in [8]; 67.9 µM in test [9]; over 100 µM in test [5]; 54.7 µM in test [10].

As for `CCCCCc1nnc(NS(=O)(=O)c2ccc(NC(=O)OCC(C)C)cc2)s1`, the TGI in test [2] was over 100 µM; in [8] it was over 100 µM; in test [3] it was 86.9 µM; in test [4] it was over 100 µM; in test [9], over 100 µM; in test [5] it was over 100 µM. The TGI in [6], in test [7] and in test [10] was over 100 µM in each case.

On to `CCOC(=O)c1nc2ccccc2nc1Oc1ccc(C(=O)OC)cc1`, for which the TGI in [2], in test [8], in test [3], in test [4], in test [9] and in test [5] was over 100 µM in each case. Also, the TGI in [6], in test [7] and in test [10] was over 100 µM each time.

As to `COC(=O)[C@H]1NC(=O)CCSSC1(C)C`, the TGI in test [2], in test [8], in test [3], in test [4], in [9] and in [5] was over 100 µM in each case. Besides, the TGI in test [6], in [7] and in [10] was over 100 µM in each case.

On to `Cc1ccc(-n2cc(-c3ccc(Cl)cc3)c3c(N/N=C4\SCC(=O)N4C)ncnc32)cc1`, for which the TGI is over 100 µM in [2]; 21.3 µM in [8]; over 100 µM in test [3]; over 100 µM in test [4]; over 100 µM in [9]; over 100 µM in [5]. The TGI in test [6], in test [7] and in [10] was over 100 µM each time.

Take `c1ccc(CN[C@]23C4C5CC6C7C5C2C7[C@@](NCc2ccccc2)(C64)N3Cc2ccccc2)cc1` (stereo partly drawn): the TGI in test [2], in test [8], in [3], in [4], in test [9] and in test [5] was over 100 µM in each case. For the same compound, the TGI in test [6], in test [7] and in test [10] was over 100 µM throughout.

Take `CCCCCCNC(=O)CCC(NC(=O)c1ccc(N(C)Cc2cnc3nc(N)nc(N)c3n2)cc1)C(=O)NCCCCCC` (stereo not drawn): the TGI in test [1], in [2], in [3], in [4], in [9] and in test [5] was over 100 µM in each case. Besides, the TGI in test [6], in [7] and in test [10] was over 100 µM each time.

Take `O=C1C=C2SC3C[C@@]24CC1[N+]1=c2c4c(c(O)c4c2=C(C=N4)CC1)N3`: the TGI in [1] amounted to 6.78 µM; in [2] it was 30.3 µM; in [3], 2.51 µM; in [9] it was 4.21 µM; in [5], 2.9 µM; in test [6], 3.9 µM. Also, the TGI worked out at 6.95 µM in [7] and 16.1 µM in [10].

As to `O=C1C=CC(=C(c2ccc(O)cc2)c2ccc(O)cc2)C=C1`, the TGI in test [1] was determined as 27.6 µM; in test [2], 31.1 µM; in [3], 19.9 µM; in test [4], 28.7 µM; in test [9], 25.2 µM; in [5], 29.7 µM. The TGI was determined as 32.3 µM in test [6] and 21 µM in test [7].

`CCCC(C)n1c(C)nc2c1C(=O)c1ccccc1C2=O` (stereo not drawn): the TGI in test [1] was over 100 µM; in test [2], 93.3 µM; in test [3], 85.1 µM; in [4], 95.8 µM; in [9] it was over 100 µM; in [5], over 100 µM. The same compound returned a TGI in test [7] of over 100 µM.

Take `COc1cc(CNc2cnc3cc(N)ccc3n2)cc(OC)c1OC`: the TGI in test [1] is over 100 µM; in [2], over 100 µM; in test [3] it was 41.1 µM; in test [4], over 100 µM; in test [9] it was over 100 µM; in test [5], over 100 µM. For the same compound, the TGI in test [6] and in test [7] was over 100 µM in each case.
